Tests used:
Assay in all cases: cells
[1] = tested on: COLO-741; type: functional, cell-based, Homo sapiens; conditions: Homo sapiens, COLO-741
Description: SANGER: Inhibition of human COLO-741 cell growth in a cell viability assay.

[2] = tested on: COLO-800; type: functional, cell-based, Homo sapiens; conditions: Homo sapiens, COLO-800;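 note: growth inhibition of COLO-800 cells, read out with a cell viability assay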
Description: SANGER: Inhibition of human COLO-800 cell growth in a cell viability assay.

[3] = tested on: CP66-MEL; type: functional, cell-based, Homo sapiens; conditions: Homo sapiens, CP66-MEL;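 note: growth inhibition of CP66-MEL cells determined in a cell viability assay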
Description: SANGER: Inhibition of human CP66-MEL cell growth in a cell viability assay.

[4] = tested on: DBTRG-05MG; type: functional, cell-based, Homo sapiens; conditions: Homo sapiens, DBTRG-05MG;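 note: cell viability assay measuring growth inhibition of human DBTRG-05MG cells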
Description: SANGER: Inhibition of human DBTRG-05MG cell growth in a cell viability assay.

[5] = tested on: DU-4475; type: functional, cell-based; conditions: Homo sapiens
Description: SANGER: Inhibition of human DU-4475 cell growth in a cell viability assay.

[6] = tested on: EFO-27; type: functional, cell-based, Homo sapiens; conditions: Homo sapiens, EFO-27;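 note: growth inhibition of EFO-27 cells, read out with a cell viability assay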
Description: SANGER: Inhibition of human EFO-27 cell growth in a cell viability assay.

[7] = tested on: GB-1; type: functional, cell-based, Homo sapiens; conditions: Homo sapiens, GB-1;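 note: growth of GB-1 cells judged by a viability assay, IC50 marks the concentration inhibiting growth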
Description: SANGER: Inhibition of human GB-1 cell growth in a cell viability assay.

[8] = tested on: GP5d; type: functional, cell-based, Homo sapiens; conditions: Homo sapiens, GP5d;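 note: growth inhibition of human GP5d cells, read out with a cell viability assay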
Description: SANGER: Inhibition of human GP5d cell growth in a cell viability assay.

[9] = tested on: HAL-01; type: functional, cell-based; conditions: Homo sapiens;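 note: growth inhibition of human HAL-01 cells, read out with a cell viability assay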
Description: SANGER: Inhibition of human HAL-01 cell growth in a cell viability assay.

[10] = tested on: HCC2157; type: functional, cell-based; conditions: Homo sapiens;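 note: growth inhibition of the cancer cell line, read out as cell viability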
Description: SANGER: Inhibition of human HCC2157 cell growth in a cell viability assay.

[11] = tested on: HDLM-2; type: functional, cell-based; conditions: Homo sapiens;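 note: cell viability assay measuring suppression of HDLM-2 proliferation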
Description: SANGER: Inhibition of human HDLM-2 cell growth in a cell viability assay.

[12] = tested on: HT-1080; type: functional, cell-based, Homo sapiens; conditions: Homo sapiens, HT-1080
Description: SANGER: Inhibition of human HT-1080 cell growth in a cell viability assay.

[13] = tested on: KNS-81-FD; type: functional, cell-based, Homo sapiens; conditions: Homo sapiens, KNS-81-FD;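 note: growth inhibition of KNS-81-FD cells, read out with a cell viability assay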
Description: SANGER: Inhibition of human KNS-81-FD cell growth in a cell viability assay.

[14] = tested on: KP-N-YN; type: functional, cell-based; conditions: Homo sapiens;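 note: growth inhibition of KP-N-YN cells, read out with a cell viability assay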
Description: SANGER: Inhibition of human KP-N-YN cell growth in a cell viability assay.

[15] = tested on: KU-19-19; type: functional, cell-based, Homo sapiens; conditions: Homo sapiens, KU-19-19
Description: SANGER: Inhibition of human KU-19-19 cell growth in a cell viability assay.

[16] = tested on: KYSE-140; type: functional, cell-based, Homo sapiens; conditions: Homo sapiens, KYSE-140;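 note: cell viability assay measuring growth inhibition in human KYSE-140 cells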
Description: SANGER: Inhibition of human KYSE-140 cell growth in a cell viability assay.

[17] = tested on: KYSE-510; type: functional, cell-based, Homo sapiens; conditions: Homo sapiens, KYSE-510;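 note: cell viability readout used to measure how strongly growth of the cell line is suppressed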
Description: SANGER: Inhibition of human KYSE-510 cell growth in a cell viability assay.

[18] = tested on: LC-2-ad; type: functional, cell-based, Homo sapiens; conditions: Homo sapiens, LC-2-ad;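 note: growth inhibition of human LC-2-ad cells, read out with a cell viability assay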
Description: SANGER: Inhibition of human LC-2-ad cell growth in a cell viability assay.

[19] = tested on: LK-2; type: functional, cell-based, Homo sapiens; conditions: Homo sapiens, LK-2;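 note: growth inhibition of LK-2 cells, read out with a viability assay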
Description: SANGER: Inhibition of human LK-2 cell growth in a cell viability assay.

[20] = tested on: LU-139; type: functional, cell-based; conditions: Homo sapiens
Description: SANGER: Inhibition of human LU-139 cell growth in a cell viability assay.

[21] = tested on: M059J; type: functional, cell-based, Homo sapiens; conditions: Homo sapiens, M059J;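 note: growth inhibition of M059J cells, read out with a cell viability assay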
Description: SANGER: Inhibition of human M059J cell growth in a cell viability assay.

[22] = tested on: MC-IXC; type: functional, cell-based, Homo sapiens; conditions: Homo sapiens, MC-IXC;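 note: growth inhibition of MC-IXC cells, read out with a cell viability assay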
Description: SANGER: Inhibition of human MC-IXC cell growth in a cell viability assay.

[23] = tested on: MeWo; type: functional, cell-based, Homo sapiens; conditions: Homo sapiens, MeWo;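 note: growth inhibition of MeWo cells, determined by a cell viability readout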
Description: SANGER: Inhibition of human Mewo cell growth in a cell viability assay.

[24] = tested on: Mo; type: functional, cell-based; conditions: Homo sapiens
Description: SANGER: Inhibition of human Mo-T cell growth in a cell viability assay.

[25] = tested on: NB12; type: functional, cell-based, Homo sapiens; conditions: Homo sapiens, NB12;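 note: growth inhibition of human NB12 cells, read out by a cell viability assay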
Description: SANGER: Inhibition of human NB12 cell growth in a cell viability assay.

[26] = tested on: NB7; type: functional, cell-based; conditions: Homo sapiens;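 note: growth inhibition of NB7 cells, read out with a cell viability assay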
Description: SANGER: Inhibition of human NB7 cell growth in a cell viability assay.

[27] = tested on: NCI-H1304; type: functional, cell-based; conditions: Homo sapiens;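 note: growth inhibition of the cancer cell line, measured in a cell viability assay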
Description: SANGER: Inhibition of human NCI-H1304 cell growth in a cell viability assay.

[28] = tested on: NCI-H1563; type: functional, cell-based, Homo sapiens; conditions: Homo sapiens, NCI-H1563;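 note: growth inhibition of human NCI-H1563 cells, read out with a cell viability assay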
Description: SANGER: Inhibition of human NCI-H1563 cell growth in a cell viability assay.

[29] = tested on: NEC8; type: functional, cell-based, Homo sapiens; conditions: Homo sapiens, NEC8;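 note: growth inhibition of human NEC8 cells, read out by a cell viability assay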
Description: SANGER: Inhibition of human NEC8 cell growth in a cell viability assay.

[30] = tested on: NH-12; type: functional, cell-based, Homo sapiens; conditions: Homo sapiens, NH-12;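 note: growth inhibition of NH-12 cells, read out with a cell viability assay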
Description: SANGER: Inhibition of human NH-12 cell growth in a cell viability assay.

[31] = tested on: OE33; type: functional, cell-based, Homo sapiens; conditions: Homo sapiens, OE33;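 note: growth inhibition of human OE33 cells, measured by a cell viability assay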
Description: SANGER: Inhibition of human OE33 cell growth in a cell viability assay.

[32] = tested on: OS-RC-2; type: functional, cell-based, Homo sapiens; conditions: Homo sapiens, OS-RC-2;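 note: growth inhibition of human OS-RC-2 cells, measured by a cell viability assay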
Description: SANGER: Inhibition of human OS-RC-2 cell growth in a cell viability assay.

[33] = tested on: OVCAR-5; type: functional, cell-based, Homo sapiens; conditions: Homo sapiens, OVCAR-5;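 note: growth inhibition of human OVCAR-5 cells, read out with a cell viability assay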
Description: SANGER: Inhibition of human OVCAR-5 cell growth in a cell viability assay.

[34] = tested on: PA-1; type: functional, cell-based, Homo sapiens; conditions: Homo sapiens, PA-1;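 note: IC50 for suppression of PA-1 cell proliferation, determined with a cell viability read-out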
Description: SANGER: Inhibition of human PA-1 cell growth in a cell viability assay.

[35] = tested on: PSN1; type: functional, cell-based, Homo sapiens; conditions: Homo sapiens, PSN1;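 note: suppression of growth of human PSN1 cells, read out by a cell viability assay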
Description: SANGER: Inhibition of human PSN1 cell growth in a cell viability assay.

[36] = tested on: RVH-421; type: functional, cell-based, Homo sapiens; conditions: Homo sapiens, RVH-421
Description: SANGER: Inhibition of human RVH-421 cell growth in a cell viability assay.

[37] = tested on: SCC-4; type: functional, cell-based, Homo sapiens; conditions: Homo sapiens, SCC-4;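 note: growth inhibition of human SCC-4 cells, read out as cell viability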
Description: SANGER: Inhibition of human SCC-4 cell growth in a cell viability assay.

[38] = tested on: SCH; type: functional, cell-based, Homo sapiens; conditions: Homo sapiens, SCH;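 note: growth inhibition of human SCH cells, read out in a cell viability assay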
Description: SANGER: Inhibition of human SCH cell growth in a cell viability assay.

[39] = tested on: SK-HEP1; type: functional, cell-based, Homo sapiens, SK-HEP-1; conditions: Homo sapiens, SK-HEP1;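 note: cell viability readout used to quantify reduction in proliferation of human SK-HEP-1 cells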
Description: SANGER: Inhibition of human SK-HEP-1 cell growth in a cell viability assay.

[40] = tested on: SK-LMS-1; type: functional, cell-based, Homo sapiens; conditions: Homo sapiens, SK-LMS-1;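 note: growth inhibition of human SK-LMS-1 cells, read out with a cell viability assay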
Description: SANGER: Inhibition of human SK-LMS-1 cell growth in a cell viability assay.

[41] = tested on: SK-OV-3; type: functional, cell-based, Homo sapiens; conditions: Homo sapiens, SK-OV-3;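 note: growth inhibition of SK-OV-3 human cells, read out with a cell viability assay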
Description: SANGER: Inhibition of human SK-OV-3 cell growth in a cell viability assay.

[42] = tested on: SN12C; type: functional, cell-based, Homo sapiens; conditions: Homo sapiens, SN12C;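 note: growth inhibition of human SN12C cells, measured by a cell viability assay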
Description: SANGER: Inhibition of human SN12C cell growth in a cell viability assay.

[43] = tested on: ACN; type: functional, cell-based, Homo sapiens; conditions: Homo sapiens, ACN;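 note: growth inhibition of the human ACN cell line, read out via cell viability testing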
Description: SANGER: Inhibition of human ACN cell growth in a cell viability assay.

[44] = tested on: AN3-CA; type: functional, cell-based; conditions: Homo sapiens;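 note: growth inhibition of human AN3-CA cells measured by a cell viability assay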
Description: SANGER: Inhibition of human AN3-CA cell growth in a cell viability assay.

[45] = tested on: BV-173; type: functional, cell-based; conditions: Homo sapiens
Description: SANGER: Inhibition of human BV-173 cell growth in a cell viability assay.

[46] = tested on: CAL-33; type: functional, cell-based, Homo sapiens; conditions: Homo sapiens, CAL-33;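 note: growth inhibition of CAL-33 cells, read out with a cell viability assay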
Description: SANGER: Inhibition of human CAL-33 cell growth in a cell viability assay.

[47] = tested on: CAL-39; type: functional, cell-based, Homo sapiens; conditions: Homo sapiens, CAL-39;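 note: cell viability assay measuring growth inhibition of CAL-39 cells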
Description: SANGER: Inhibition of human CAL-39 cell growth in a cell viability assay.

[48] = tested on: CAL-54; type: functional, cell-based, Homo sapiens; conditions: Homo sapiens, CAL-54;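 note: growth inhibition of CAL-54 cells, read out by a viability measurement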
Description: SANGER: Inhibition of human CAL-54 cell growth in a cell viability assay.

[49] = tested on: TE-12; type: functional, cell-based; conditions: Homo sapiens;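 note: growth inhibition of TE-12 cells, read out by a cell viability assay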
Description: SANGER: Inhibition of human TE-12 cell growth in a cell viability assay.

[50] = tested on: TE-5; type: functional, cell-based, Homo sapiens; conditions: Homo sapiens, TE-5;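 note: inhibition of cell growth, read out by a cell viability assay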
Description: SANGER: Inhibition of human TE-5 cell growth in a cell viability assay.

[51] = tested on: WM-115; type: functional, cell-based, Homo sapiens; conditions: Homo sapiens, WM-115
Description: SANGER: Inhibition of human WM-115 cell growth in a cell viability assay.

[52] = tested on: CAPAN-1; type: functional, cell-based, Homo sapiens; conditions: Homo sapiens, CAPAN-1;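 note: growth suppression of CAPAN-1 cells, read out by a cell viability assay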
Description: SANGER: Inhibition of human CAPAN-1 cell growth in a cell viability assay.

Question: Which IC50 [1] does the source give for `CCOc1nc(NC(=O)Cc2cc(OC)ccc2OC)cc(N)c1C#N` here?
Answer: > 10 µM

Question: What about the IC50 [2] of the same compound?
Answer: > 10 µM

Question: And the IC50 [3]?
Answer: > 10 µM

Question: What about the IC50 [4] of the same compound?
Answer: > 10 µM

Question: And the IC50 [5]?
Answer: > 10 µM

Question: And the IC50 [6]?
Answer: > 10 µM

Question: And the IC50 [7]?
Answer: > 10 µM

Question: What about the IC50 [8] of the same compound?
Answer: > 10 µM

Question: What about the IC50 [9] of the same compound?
Answer: > 10 µM

Question: What about the IC50 [10] of the same compound?
Answer: > 10 µM

Question: What about the IC50 [11] of the same compound?
Answer: > 10 µM

Question: What about the IC50 [12] of the same compound?
Answer: > 10 µM

Question: What about the IC50 [13] of the same compound?
Answer: > 10 µM

Question: What about the IC50 [14] of the same compound?
Answer: > 10 µM

Question: What about the IC50 [15] of the same compound?
Answer: > 10 µM

Question: What about the IC50 [16] of the same compound?
Answer: > 10 µM

Question: And the IC50 [17]?
Answer: > 10 µM

Question: What about the IC50 [18] of the same compound?
Answer: > 10 µM

Question: What about the IC50 [19] of the same compound?
Answer: > 10 µM

Question: And the IC50 [20]?
Answer: > 10 µM

Question: What about the IC50 [21] of the same compound?
Answer: > 10 µM

Question: What about the IC50 [22] of the same compound?
Answer: > 10 µM

Question: And the IC50 [23]?
Answer: > 10 µM

Question: What about the IC50 [24] of the same compound?
Answer: > 10 µM

Question: And the IC50 [25]?
Answer: > 10 µM

Question: What about the IC50 [26] of the same compound?
Answer: 2.27 µM

Question: And the IC50 [27]?
Answer: > 10 µM

Question: What about the IC50 [28] of the same compound?
Answer: > 10 µM

Question: And the IC50 [29]?
Answer: > 10 µM

Question: And the IC50 [30]?
Answer: > 10 µM

Question: And the IC50 [31]?
Answer: > 10 µM

Question: What about the IC50 [32] of the same compound?
Answer: > 10 µM

Question: What about the IC50 [33] of the same compound?
Answer: > 10 µM

Question: What about the IC50 [34] of the same compound?
Answer: > 10 µM

Question: And the IC50 [35]?
Answer: > 10 µM

Question: And the IC50 [36]?
Answer: > 10 µM

Question: And the IC50 [37]?
Answer: > 10 µM

Question: And the IC50 [38]?
Answer: > 10 µM

Question: What about the IC50 [39] of the same compound?
Answer: > 10 µM

Question: And the IC50 [40]?
Answer: > 10 µM

Question: And the IC50 [41]?
Answer: > 10 µM

Question: And the IC50 [42]?
Answer: > 10 µM

Question: And the IC50 [43]?
Answer: > 10 µM

Question: What about the IC50 [44] of the same compound?
Answer: > 10 µM

Question: And the IC50 [45]?
Answer: > 10 µM

Question: What about the IC50 [46] of the same compound?
Answer: > 10 µM

Question: What about the IC50 [47] of the same compound?
Answer: > 10 µM

Question: And the IC50 [48]?
Answer: > 10 µM

Question: And the IC50 [49]?
Answer: > 10 µM

Question: What about the IC50 [50] of the same compound?
Answer: > 10 µM

Question: What about the IC50 [51] of the same compound?
Answer: > 10 µM

Question: And the IC50 [52]?
Answer: > 10 µM
